Laboratory results from patent US8901118B2, “Compounds and methods for kinase modulation, and indications therefor” (Plexxikon Inc., priority 2010, dated 2014).

Tests used:
BCR-KIT BaF3 cells = biological target: T1, BCR-KIT BaF3 cells (Homo sapiens, UniProt P10721); test: BaF3 BCR-KIT cell proliferation assay (ATPlite); type: cell-based; conditions: read-out: Inhibition of Cell Proliferation IC50, BCR/BaF3 Kit
T1 construct: fused on or other part: P11274 (Breakpoint cluster region protein)
Experimental: (§1) Compounds are assessed in a variety of cell based assays. For example BaF3 cells engineered with any of BCR-FMS, BCR-KIT, BCR-FLT3, BCR-NTRK1, BCR-NTRK2, and BCR-NTRK3, are used in cell proliferation assays to assess inhibitory activity of Fms, Kit, Flt-3, TrkA, TrkB, and TrkC, respectively. An MV-4-11 (leukemia) cell proliferation assay is used to assess inhibitory activity in Flt-3, and SKNSH (human neuroblastoma) cell proliferation assay is used to assess efficacy of Fms/Trk inhibitors. Additional cells may be assayed similarly to assess the efficacy of Fms/Trk inhibitors, such as MiaPaCa (human pancreatic cancer) and Capan-1 (human pancreatic carcinoma) cells. Reagent and assay conditions are as follows: • BaF3 cells: • Maintained in RPMI containing 10% FBS, 1% PenStrep, 1% NEAA, and 1% L-Glutamine, supplemented with 1 mg/mL G418 and 5% WEHI-CM (or recombinant murine IL-3). • Confluent cells are split 1:50 to 1:100 every 3-4 days. • MV-4-11 cells: • Maintained in Iscove's Modified Dulbecco's Medium containing 10% FBS. • Confluent cells are split 1:4 every 3-4 days. • SKNSH cells: RPMI containing 10% FBS. On day 1, cells are counted, then centrifuged in a conical tube for 5 minutes at 1000 rpm. The supernatant is removed and cells are re-suspended as follows: • BaF3: resuspend in growth media +1 mg/mL G418 (without WEHFIL-3) to 2×10^5 cells/mL. • MV-4-11: resuspend in growth media to 5×10^5 cells/mL. • SKNSH: resuspend in growth media to 2×10^4 cells/mL. The cells are plated (50 μL, 150 μL for SKNSH cells) in each well of a 96-well dish (Corning 3610) and incubated at 37° C. in 5% CO2 overnight, cells plated to a final concentration of cells as follows: • BaF3: 10,000 cells per well. • MV-4-11: 25,000 cells per well. • SKNSH: 3,000 cells per well. On day 2, compound at a maximum concentration of 5 mM is serially diluted 1:3 for a total of 8 point titration with DMSO as a control. A 1 μL aliquot of each dilution point is added to 249 μL growth media and 50 μL is added to a well containing cells, providing 10 μM compound for the maximum concentration point. The cells are incubated for 3 days at 37° C. in 5% CO2. For SKNSH cells, a 0.75 μL aliquot of appropriate dilution in DMSO is added to 150 μL of cells. On day 5, ATPlite 1 step Luminescence Assay System (Perkin Elmer #6016739) is brought to room temperature along with the cell cultures. ATPlite is added to each well as follows: • BaF3: 25 μL per well. • MV-4-11: 40 μL per well. • SKNSH: 20 μL per well. The cells are incubated at room temperature for 10 minutes, then luminescence is read on Safire reader. The measured luminescence correlates directly with cell number, such that the reading as a function of compound concentration is used to determine the IC50 value.
(§2) It is understood that the results of these assays may vary as assay conditions are varied. Inhibition levels determined under the conditions described herein represent a relative activity for the compounds tested under the specific conditions employed. The cell based assays are likely to show variability due to the complexity of the system and the sensitivity thereof to any changes in the assay conditions. […] Results for compounds that are tested and show substantially no inhibition below the highest tested concentration are represented as “-” in the tables below. In some instances, the compounds were not tested in all of the assays, or assay results were not valid, as indicated by NA in the tables below.

BCR-NTRK1 BaF3 cells = biological target: T2, BCR-NTRK1 BaF3 cells (Homo sapiens, UniProt P04629); test: BaF3 BCR-NTRK1 cell proliferation assay (ATPlite); type: cell-based; conditions: read-out: Inhibition of Cell Proliferation IC50, BCR/BaF3 TrkA
T2 construct: fused on or other part: P11274 (Breakpoint cluster region protein)
Experimental: as §1, §2

CYP2D6 = CYP2D6 (Homo sapiens, UniProt P10635); test: CYP2D6 inhibition (fluorescent substrate AMMC); type: in vitro ADME; conditions: read-out: Cyp IC50 2D6
Experimental: CYP (Cytochrome P450) enzymes are the major drug metabolizing enzymes present in the liver. The inhibition of CYP enzyme activity (IC50) for each of CYP1A2, CYP2C19, CYP2C9, CYP2D6, CYP3A4(BFC) and CYP3A4(BQ) is determined for compounds, where inhibition of metabolism of a known substrate leads to a decrease in the fluorescence of the metabolized product. The fluorescence of the product is monitored as a function of compound concentration. Compounds are dissolved in DMSO to a concentration of 100 mM. These are diluted 1 μL into 82 μL of acetonitrile. An 11 μL aliquot of this solution is then added to 204 μL of cofactor mix (1.3% NADPH Regeneration system Solution A, 1.04% NADPH Regeneration system Solution B from BD Biosciences, 5% acetonitrile and 0.05% DMSO). These are then serially diluted 1:1 (160 μL to 160 μL co-factor mix) for a total of 10 points. A 10 μL aliquot of this final mixture is dispensed into 384 well assay plates and incubated for 10 minutes at 37° C. […] Assay plates are incubated at 37° C. (CYP1A2-15 min; CYP2C9-45 min; CYP2C19, 2D6 and 3A4-30 min) and read in a Tecan Safire 2 plate reader (CYP1A2, 2C19 and 3A4 409 ex/460 em; CYP2C9 and 2D6 409 ex/530 em). The signal versus compound concentration is used to determine the IC50. The enzymes and substrates for this assay are obtained from BD Biosciences.

Sequence of CYP2D6 (P10635 whole entry): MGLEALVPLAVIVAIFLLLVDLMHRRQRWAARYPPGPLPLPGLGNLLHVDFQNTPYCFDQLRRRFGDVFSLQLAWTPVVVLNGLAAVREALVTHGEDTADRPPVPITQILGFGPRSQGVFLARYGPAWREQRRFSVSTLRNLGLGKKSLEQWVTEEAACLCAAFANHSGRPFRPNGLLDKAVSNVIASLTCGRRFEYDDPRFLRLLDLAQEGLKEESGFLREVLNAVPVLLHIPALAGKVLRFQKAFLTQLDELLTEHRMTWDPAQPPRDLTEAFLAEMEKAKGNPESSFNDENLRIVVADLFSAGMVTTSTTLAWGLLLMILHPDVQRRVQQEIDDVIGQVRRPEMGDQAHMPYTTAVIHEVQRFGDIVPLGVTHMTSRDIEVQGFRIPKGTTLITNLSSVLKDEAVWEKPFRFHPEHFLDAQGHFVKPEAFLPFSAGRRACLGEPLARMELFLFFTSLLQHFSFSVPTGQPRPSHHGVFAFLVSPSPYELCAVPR
T2 sequence (P04629 510-781): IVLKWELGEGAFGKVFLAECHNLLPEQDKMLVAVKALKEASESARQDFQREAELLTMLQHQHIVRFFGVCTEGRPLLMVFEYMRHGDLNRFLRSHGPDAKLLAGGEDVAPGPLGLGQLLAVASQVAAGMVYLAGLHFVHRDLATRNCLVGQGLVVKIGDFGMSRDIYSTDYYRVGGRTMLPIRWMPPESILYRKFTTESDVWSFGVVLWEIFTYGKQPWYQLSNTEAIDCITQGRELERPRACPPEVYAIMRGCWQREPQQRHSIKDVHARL
T1 sequence (P10721 589-937): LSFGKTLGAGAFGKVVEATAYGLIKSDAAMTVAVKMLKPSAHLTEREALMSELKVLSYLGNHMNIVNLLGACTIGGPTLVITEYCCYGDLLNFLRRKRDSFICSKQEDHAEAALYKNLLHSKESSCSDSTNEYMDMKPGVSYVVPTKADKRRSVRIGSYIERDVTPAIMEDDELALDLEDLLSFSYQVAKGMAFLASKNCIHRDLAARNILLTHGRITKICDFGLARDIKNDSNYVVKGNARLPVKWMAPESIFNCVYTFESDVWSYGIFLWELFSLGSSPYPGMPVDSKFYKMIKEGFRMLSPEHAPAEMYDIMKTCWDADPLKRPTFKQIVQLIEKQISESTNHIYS

| IC50 (BCR-KIT BaF3 cells) | IC50 (BCR-NTRK1 BaF3 cells) | IC50 (CYP2D6) | Compound |
| --- | --- | --- | --- |
| < 100 nM | < 10 nM | > 10000 nM | CNc1ncnc2[nH]cc(C(=O)c3ccc(Nc4ccc(OC)nc4)nc3F)c12 [Compound P-4083, [2-fluoro-6-[(6-methoxy-3-pyridyl)amino]-3-pyridyl]-[4-(methylamino)-7H-pyrrolo[2,3-d]pyrimidin-5-yl]methanone] |
| < 100 nM | < 10 nM | > 10000 nM | CCC(C)Nc1ncnc2[nH]cc(C(=O)c3ccc(Nc4ccc(OC)nc4)nc3F)c12 (stereo not drawn) [Compound P-4078, [2-fluoro-6-[(6-methoxy-3-pyridyl)amino]-3-pyridyl]-[4-(sec-butylamino)-7H-pyrrolo[2,3-d]pyrimidin-5-yl]methanone] |
| < 100 nM | < 10 nM | > 10000 nM | COc1ccc(Nc2ccc(C(=O)c3c[nH]c4ncnc(NC5CCCC5)c34)c(F)n2)cn1 [Compound P-4075, [4-(cyclopentylamino)-7H-pyrrolo[2,3-d]pyrimidin-5-yl]-[2-fluoro-6-[(6-methoxy-3-pyridyl)amino]-3-pyridyl]methanone] |
| < 100 nM | < 10 nM | > 10000 nM | COCCCNc1ncnc2[nH]cc(C(=O)c3ccc(Nc4ccc(OC)nc4)nc3F)c12 [Compound P-4079, [2-fluoro-6-[(6-methoxy-3-pyridyl)amino]-3-pyridyl]-[4-(3-methoxypropylamino)-7H-pyrrolo[2,3-d]pyrimidin-5-yl]methanone] |
| < 1000 nM | < 100 nM | > 10000 nM | Cc1ccc(Nc2ccc(C(=O)c3c[nH]c4ncnc(NCC5CC5)c34)c(F)n2)cn1 [Compound P-4113, [4-(cyclopropylmethylamino)-7H-pyrrolo[2,3-d]pyrimidin-5-yl]-[2-fluoro-6-[(6-methyl-3-pyridyl)amino]-3-pyridyl]methanone] |
| > 1000 nM | < 1000 nM | > 10000 nM | COc1ccc(Nc2ccc(C(=O)c3c[nH]c4ncnc(NC(C)(C)C)c34)c(F)n2)cn1 [Compound P-4055, [4-(tert-butylamino)-7H-pyrrolo[2,3-d]pyrimidin-5-yl]-[2-fluoro-6-[(6-methoxy-3-pyridyl)amino]-3-pyridyl]methanone] |
| < 100 nM | < 10 nM | > 10000 nM | COc1ccc(Nc2ccc(C(=O)c3c[nH]c4ncnc(NC5CCCCC5)c34)c(F)n2)cn1 [Compound P-4082, [4-(cyclohexylamino)-7H-pyrrolo[2,3-d]pyrimidin-5-yl]-[2-fluoro-6-[(6-methoxy-3-pyridyl)amino]-3-pyridyl]methanone] |
| < 100 nM | < 10 nM | > 10000 nM | O=C(c1ccc(Nc2ccc(C(F)(F)F)nc2)nc1F)c1c[nH]c2ncnc(NC3CC3)c12 [Compound P-4091, [4-(cyclopropylamino)-7H-pyrrolo[2,3-d]pyrimidin-5-yl]-[2-fluoro-6-[[6-(trifluoromethyl)-3-pyridyl]amino]-3-pyridyl]methanone] |
| < 100 nM | < 10 nM | > 5000 nM | CCc1ccc(Nc2ccc(C(=O)c3c[nH]c4ncnc(NC5CC5)c34)c(F)n2)cn1 [Compound P-4125, [4-(cyclopropylamino)-7H-pyrrolo[2,3-d]pyrimidin-5-yl]-[6-[(6-ethyl-3-pyridyl)amino]-2-fluoro-3-pyridyl]methanone] |

Second part, the molecule before the results:

| Compound | IC50 (BCR-KIT BaF3 cells) | IC50 (BCR-NTRK1 BaF3 cells) | IC50 (CYP2D6) |
| --- | --- | --- | --- |
| O=C(c1ccc(NC2CCC(F)(F)CC2)nc1F)c1c[nH]c2ncnc(NCC(F)(F)F)c12 [Compound P-4061, [6-[(4,4-difluorocyclohexyl)amino]-2-fluoro-3-pyridyl]-[4-(2,2,2-trifluoroethylamino)-7H-pyrrolo[2,3-d]pyrimidin-5-yl]methanone] | > 1000 nM | < 100 nM | > 10000 nM |
| CCc1ccc(Nc2ccc(C(=O)c3c[nH]c4ncnc(N)c34)c(F)n2)cn1 [Compound P-4065, (4-amino-7H-pyrrolo[2,3-d]pyrimidin-5-yl)-[6-[(6-ethyl-3-pyridyl)amino]-2-fluoro-3-pyridyl]methanone] | < 100 nM | < 100 nM | > 10000 nM |
| Cc1ccc(Nc2ccc(C(=O)c3c[nH]c4ncnc(NCC(F)(F)F)c34)c(F)n2)cn1 [Compound P-4112, [2-fluoro-6-[(6-methyl-3-pyridyl)amino]-3-pyridyl]-[4-(2,2,2-trifluoroethylamino)-7H-pyrrolo[2,3-d]pyrimidin-5-yl]methanone] | > 1000 nM | < 100 nM | < 5000 nM |
| CCc1ccc(Nc2ccc(C(=O)c3c[nH]c4ncnc(NC(C)C)c34)c(F)n2)cn1 [Compound P-4117, [6-[(6-ethyl-3-pyridyl)amino]-2-fluoro-3-pyridyl]-[4-(isopropylamino)-7H-pyrrolo[2,3-d]pyrimidin-5-yl]methanone] | < 100 nM | < 10 nM | > 10000 nM |
| CCNc1ncnc2[nH]cc(C(=O)c3ccc(Nc4ccc(C5CC5)nc4)nc3F)c12 [Compound P-4060, [6-[(6-cyclopropyl-3-pyridyl)amino]-2-fluoro-3-pyridyl]-[4-(ethylamino)-7H-pyrrolo[2,3-d]pyrimidin-5-yl]methanone] | < 100 nM | < 10 nM | > 10000 nM |
| CCc1ccc(Nc2ccc(C(=O)c3c[nH]c4ncnc(NCC(C)C)c34)c(F)n2)cn1 [Compound P-4121, [6-[(6-ethyl-3-pyridyl)amino]-2-fluoro-3-pyridyl]-[4-(isobutylamino)-7H-pyrrolo[2,3-d]pyrimidin-5-yl]methanone] | < 100 nM | < 10 nM | > 10000 nM |
| CC(C)Nc1ncnc2[nH]cc(C(=O)c3ccc(NC4CCCCC4)nc3F)c12 [Compound P-4101, [6-(cyclohexylamino)-2-fluoro-3-pyridyl]-[4-(isopropylamino)-7H-pyrrolo[2,3-d]pyrimidin-5-yl]methanone] | < 1000 nM | < 100 nM | > 10000 nM |
| O=C(c1ccc(NC2CCC(F)(F)CC2)nc1)c1c[nH]c2ncnc(NC3CC3)c12 [Compound P-4088, [4-(cyclopropylamino)-7H-pyrrolo[2,3-d]pyrimidin-5-yl]-[6-[(4,4-difluorocyclohexyl)amino]-3-pyridyl]methanone] | < 1000 nM | < 100 nM | > 10000 nM |
